The source of these data is patent US11419878B2, “Medicine obtained by combining FXR agonist and ARB” (Intercept Pharmaceuticals, Inc., priority 2016, dated 2022).

SMILES strings stand for the structures.

Experiment [1] relates to α1(I) procollagen. As to the kind of experiment: HHSC fibrosis marker gene expression, RT-PCR, α1(I) procollagen. It counts as cell-based, human. The conditions noted are these: AT-II 10^-6M + LPS 10^-5M; ARB 10^-6M, obeticholic acid 5×10^-6M; 24 hours; monotherapy vs G2AL, combination vs monotherapy groups. How it is done: (§1) The various combined effects of obeticholic acid and three types of ARBs (losartan, valsartan, and candesartan) were confirmed in an in vitro cell system experiment. Specifically, using human hepatic stellate cells (HHSC), which are implicated in the main mechanism of progression of hepatic fibrosis in NASH, the effects of administration of obeticholic acid in combination with the three ARBs of inhibiting HHSC proliferation capacity and the expression of fibrosis markers were evaluated according to the following method. Human hepatic stellate cells (HHSC) (also referred to as human hepatic star cells) Obeticholic acid (obtained from Intercept Pharmaceuticals, Inc. via Sumitomo Dainippon Pharma Co., Ltd.) was used as an FXR agonist, and commercial losartan (potassium salt of losartan; referred to in this working example simply as “losartan”) and valsartan and candesartan ([…] of candesartan; referred to in this working example simply as “candesartan”) were used as ARBs. Angiotensin II (AT-II) and/or lipopolysaccharide (LPS) were used (both AT1-mediated AT-II signalling and TLR4-mediated LPS signaling are known to play major roles in HSC activation and the progression of hepatic fibrosis). With respect to the effect of inhibiting fibrosis marker gene expression, collagen production capacity and TGF-β production capacity were evaluated by the RT-PCR method. 1) HHSCs were inoculated onto a 6-well plate in the amount of 300,000 cells/2 ml and allowed to proliferate in 1% FBS DMEM medium for 24 hours. 2) After 24 hours, the cells were divided into the following 7 groups and transferred to culture medium after adding the following drugs and/or reagents. Losartan was used as an ARB. Negative control group (G1): No drugs added (control) […] AT-II (10^-6M) Positive control group L […]): LPS (10^-5M) Positive control group AL ([…]): (10^-6M)+LPS (10^-5M) Obeticholic acid administration (G3): AT-II (10^-6M)+LPS (10^-5M)+obeticholic acid (5×10^-6M) ARB administration (G4): AT-II (10^-6M)+LPS (10^-5M)+ARB (10^-6M) Obeticholic acid+ARB combined administration (G5): AT-II (10^-6M)+LPS (10^-5M)+obeticholic acid (5×10^-6M)+ARB (10^-6M) […] Evaluations were conducted in the five groups G1, G2AL, G3, G4, and G5.

The test system of experiment [2] is TGF-β1. Briefly: Rat NASH model, RT-PCR of hepatic TGF-β1 mRNA expression. The class given is in vivo. The conditions noted are these: OLETF rats, PS 8 weeks, obeticholic acid 30 mg/kg/day and/or losartan 30 mg/kg/day oral. How it is done: (§2) Using the liver sections from the rats in the various groups obtained in working example 1, an immunohistochemical study by immunohistological staining with α-smooth muscle actin (α-SMA) antibody and a quantitative analysis of transforming growth factor-β1 TGF-β1) and collagen (α1(I) procollagen) mRNA expression were conducted. α-SMA is known to be an indicator (marker) of activation of hepatic stellate cells (HSCs) (also known as hepatic star cells). Moreover, activation of hepatic stellate cells (HSC), overproduction of TGF-β1 (a fibrosis-promoting cytokine) accompanying said activation, and overproduction of extracellular matrix components such as collagen are thought to play a central role in the mechanism of progressive hepatic fibrosis in NASH. For this reason, mRNA expression of TGF-β1 and collagen (α1(I) procollagen) can be a fibrosis indicator (marker).
(§3) A comparative study was conducted by analyzing TGF-β1 and collagen (α1(I) procollagen) mRNA expression in the livers of the rates of the various groups of working example 1 by means of the quantitative real-time polymerase chain reaction (RT-PCR). Quantitation of the mRNA expression levels by RT-PCR was conducted on a StepOne Plus™ system (manufactured by Applied Biosystems®) using the fluorescent dye SYBR® Green

Experiment [3] relates to TGF-β1. As to the kind of experiment: HHSC fibrosis marker gene expression, RT-PCR, TGF-β1. The conditions noted are these: AT-II 10^-6M + LPS 10^-5M; ARB 10^-6M, obeticholic acid 5×10^-6M; 24 hours; monotherapy vs G2AL, combination vs monotherapy groups. The class given is cell-based, human. Here is the method:
as §1

Experiment [4] deals with α-smooth muscle actin (α-SMA). As to the kind of experiment: Rat NASH model, immunohistological staining of liver sections with α-SMA antibody (HSC activation). The conditions noted are these: OLETF rats, PS 8 weeks, obeticholic acid 30 mg/kg/day and/or losartan 30 mg/kg/day oral; for α-SMA index (α-SI) compared to the positive control group: p<0.01. It counts as in vivo. Here is the method:
as §2
Using the same method as described under [Histological analysis] in working example 1 above, except that immunohistological staining with α-SMA antibody was used instead of Sirius Red staining, a comparison of the micrographs among the various groups and a semiquantitative analysis of the immunohistochemical characteristics of the collected stained section images were carried out, and the blocking effect of obeticholic acid and losartan (administration groups, combined administration group) on HSC activation in the progression of hepatic fibrosis was evaluated.

Experiment [5] deals with α1(I) procollagen. As to the kind of experiment: Rat NASH model, RT-PCR of hepatic α1(I) procollagen mRNA expression. The class given is in vivo. The conditions noted are these: OLETF rats, PS 8 weeks, obeticholic acid 30 mg/kg/day and/or losartan 30 mg/kg/day oral. How it is done: as §2, §3

As for `CCCCc1nc(Cl)c(CO)n1Cc1ccc(-c2ccccc2-c2nn[nH]n2)cc1` [losartan], in the experiment on α1(I) procollagen [1], the “α1(I)-procollagen mRNA expression induced by AT-II and LPS in HHSC” value was “statistically significant inhibition”. In addition, in the experiment on TGF-β1 [2], the “TGF-β1 mRNA expression in liver compared to the positive control group” value was “moderate decreasing tendency”. Besides, the “TGF-β1 mRNA expression induced by AT-II and LPS in HHSC” value in the experiment with TGF-β1 [3] is “statistically significant inhibition”. In experiment [4], the “increase in activated hepatic stellate cells (Ac-HSCs), micrographs of α-SMA stained sections” value is given as “moderately inhibited” and the “α-SMA index (α-SI) compared to the positive control group” value was “moderate but significant decreases”. The “α1(I) procollagen mRNA expression in liver compared to the positive control group” value in the experiment on α1(I) procollagen [5] is reported as “moderate decreasing tendency”.

As for `CC[C@H]1[C@@H](O)[C@@H]2[C@H](CC[C@]3(C)[C@@H]([C@H](C)CCC(=O)O)CC[C@@H]23)[C@@]2(C)CC[C@@H](O)C[C@@H]12` [obeticholic acid, 3α,7α-dihydroxy-6α-ethyl-5β-cholan-24-oic acid], the “α1(I)-procollagen mRNA expression induced by AT-II and LPS in HHSC” value in the experiment on α1(I) procollagen [1] is “statistically significant inhibition”. Moreover, the “TGF-β1 mRNA expression in liver compared to the positive control group” value in the experiment on TGF-β1 [2] is “moderate decreasing tendency”. Further, the “TGF-β1 mRNA expression induced by AT-II and LPS in HHSC” value in the experiment on TGF-β1 [3] is on record as “statistically significant inhibition”. Also, in experiment [4], the “increase in activated hepatic stellate cells (Ac-HSCs), micrographs of α-SMA stained sections” value is given as “moderately inhibited” and the “α-SMA index (α-SI) compared to the positive control group” value is “moderate but significant decreases”. For the same molecule, the “α1(I) procollagen mRNA expression in liver compared to the positive control group” value in the experiment with α1(I) procollagen [5] is “moderate decreasing tendency”.
